Earlier results in patent US10399946B2, “Solid forms of an S-Nitrosoglutathione reductase inhibitor” (Alpine Immune Sciences, Inc., priority 2015, dated 2019).

Tests used:
[1] = molecular target: S-nitrosoglutathione reductase (GSNOR) (Homo sapiens, UniProt P11766); settings: variety of assays and therapeutic models
[2] = described in WO2012/048181, US 62/061,557, 62/093,712, 62/138,792, 62/209,724, WO 2016/057811

Chain of S-nitrosoglutathione reductase (GSNOR) (P11766 whole entry): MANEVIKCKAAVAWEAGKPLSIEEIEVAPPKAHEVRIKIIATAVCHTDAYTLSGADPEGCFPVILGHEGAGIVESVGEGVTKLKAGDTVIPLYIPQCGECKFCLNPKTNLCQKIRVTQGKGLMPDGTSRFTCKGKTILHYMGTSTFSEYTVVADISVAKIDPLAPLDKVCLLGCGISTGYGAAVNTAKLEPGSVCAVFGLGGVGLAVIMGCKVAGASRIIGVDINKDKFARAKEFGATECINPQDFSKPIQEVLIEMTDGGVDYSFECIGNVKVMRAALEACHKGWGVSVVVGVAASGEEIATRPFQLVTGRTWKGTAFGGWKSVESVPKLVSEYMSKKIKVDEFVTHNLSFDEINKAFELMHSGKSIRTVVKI

## O=C(O)c1ccc(-c2ccc3cc(O)ccc3n2)c(Cl)c1 [Compound 1, 3-chloro-4-(6-hydroxyquinolin-2-yl)benzoic acid]
[1]
  inhibition of S-nitrosoglutathione reductase (GSNOR): selective and reversible inhibition
[2]
  efficacy in asthma, COPD, cystic fibrosis, and IBD models: demonstrates efficacy
